Measurements: ChEMBL document CHEMBL5154913, “Phenyl Bis-Sulfonamide Keap1-Nrf2 Protein-Protein Interaction Inhibitors with an Alternative Binding Mode” (J Med Chem, 2022)
In brackets after ≈: the same amount, converted by molar mass. Blank lines part the entries; values can stand above or below the compound they belong to.

How the values were obtained:
[1] = Aqueous solubility of the compound at pH 7.4; type: physicochemical; details: aqueous medium
[2] = Permeability of the compound across artificial membrane by IAM binding assay; type: ADME
[3] = system: ARPE-19; assay: Cytotoxicity against human ARPE-19 cells assessed as reduction in cell viability at 1 uM incubated for 96 hrs by MTT assay relative to control; type: toxicity, cell-based; details: arpe-19, 96 h

solubility [1]: 348 µg/mL (≈ 519 µM)
SMILES: COc1ccc(S(=O)(=O)N(CC(=O)O)c2ccc(N(CC(=O)O)S(=O)(=O)c3ccc(OC)cc3)c(OCc3ccccc3)c2)cc1

log K [2]: 1.83
SMILES: COc1ccc(S(=O)(=O)N(CC(=O)O)c2ccc(N(CC(=O)O)S(=O)(=O)c3ccc(OC)cc3)c(OCc3cccc(OC)c3)c2)cc1

SMILES: COC(=O)[C@]12CCC(C)(C)C[C@H]1[C@H]1C(=O)C=C3[C@@]4(C)C=C(C#N)C(=O)C(C)(C)[C@@H]4CC[C@@]3(C)[C@]1(C)CC2 [BARDOXOLONE METHYL]
Activity [3]: Toxic
